ChEMBL document CHEMBL1135148, “Synthesis and profile of SCH351591, a novel PDE4 inhibitor” (Bioorg Med Chem Lett, 2002)

How the values were obtained:
[1] = target: T1, Phosphodiesterase 4 (Homo sapiens, UniProt P27815+Q08499+Q07343+Q08493); experiment: Inhibition of Phosphodiesterase 4; assay type: protein assay
[2] = target: T1, Phosphodiesterase 4; experiment: Inhibition of Phosphodiesterase 4 from human U937 cells; assay type: cell-based; conditions: u-937
[3] = target: T1, Phosphodiesterase 4; experiment: Relative inhibition of phosphodiesterase 4 and rolipram binding; assay type: protein assay
[4] = target: Phosphodiesterase 1 (Homo sapiens) (UniProt P54750+Q01064+Q14123); experiment: Inhibition of recombinant Phosphodiesterase 1; assay type: protein assay; conditions: concentration not given here
[5] = target: cGMP-specific 3',5'-cyclic phosphodiesterase (Homo sapiens) (UniProt O76074); experiment: Inhibition of Phosphodiesterase 5 from human platelets; conditions: concentration not given here
[6] = target: Phosphodiesterase 3 (Homo sapiens) (UniProt Q14432+Q13370); experiment: Inhibition of Phosphodiesterase 3 from human platelets; conditions: concentration not given here
[7] = Cmax in rat after 3mg/kg oral dose; assay type: ADME, organism-based; set-up: dose 3 mg/kg, route oral; conditions: in vivo
[8] = AUC in guinea pig after 3mg/kg oral dose; assay type: ADME, organism-based, Cavia porcellus, Plasma
[9] = AUC in rat after 3mg/kg oral dose; assay type: ADME, organism-based; conditions: plasma
[10] = target: Phosphodiesterase 4 (Rattus norvegicus, UniProt P14270+P14646+P14644+P54748); experiment: Inhibition of rolipram binding to PDE4 of rat brain
[11] = Cmax in guinea pig after 3mg/kg oral dose; assay type: ADME, organism-based, Cavia porcellus; set-up: dose 3 mg/kg, route oral; conditions: in vivo
[12] = target: cGMP-dependent 3',5'-cyclic phosphodiesterase (Homo sapiens) (UniProt O00408); experiment: Inhibition of Phosphodiesterase 2; conditions: concentration not given here
[13] = target: Phosphodiesterase 7 (Homo sapiens) (UniProt Q13946+Q9NP56); experiment: Inhibition of Phosphodiesterase 7 from human T-lymphocyte cell line; conditions: concentration not given here
Phosphodiesterase 7 (Homo sapiens), sequence (Q13946 whole entry, looked up): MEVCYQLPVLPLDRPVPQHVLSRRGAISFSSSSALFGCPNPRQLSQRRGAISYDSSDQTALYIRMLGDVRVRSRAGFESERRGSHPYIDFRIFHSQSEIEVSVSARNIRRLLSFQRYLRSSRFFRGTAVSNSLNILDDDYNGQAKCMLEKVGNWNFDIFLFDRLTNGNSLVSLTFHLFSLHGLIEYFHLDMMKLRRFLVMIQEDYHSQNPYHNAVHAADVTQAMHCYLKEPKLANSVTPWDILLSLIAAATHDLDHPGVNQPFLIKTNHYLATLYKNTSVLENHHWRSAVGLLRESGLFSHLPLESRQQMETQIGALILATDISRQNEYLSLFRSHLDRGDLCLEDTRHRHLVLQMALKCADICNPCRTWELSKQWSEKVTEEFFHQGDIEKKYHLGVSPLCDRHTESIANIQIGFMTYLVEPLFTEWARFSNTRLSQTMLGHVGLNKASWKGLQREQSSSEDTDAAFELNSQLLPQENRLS
Phosphodiesterase 7 (Homo sapiens), sequence (Q9NP56 whole entry, looked up): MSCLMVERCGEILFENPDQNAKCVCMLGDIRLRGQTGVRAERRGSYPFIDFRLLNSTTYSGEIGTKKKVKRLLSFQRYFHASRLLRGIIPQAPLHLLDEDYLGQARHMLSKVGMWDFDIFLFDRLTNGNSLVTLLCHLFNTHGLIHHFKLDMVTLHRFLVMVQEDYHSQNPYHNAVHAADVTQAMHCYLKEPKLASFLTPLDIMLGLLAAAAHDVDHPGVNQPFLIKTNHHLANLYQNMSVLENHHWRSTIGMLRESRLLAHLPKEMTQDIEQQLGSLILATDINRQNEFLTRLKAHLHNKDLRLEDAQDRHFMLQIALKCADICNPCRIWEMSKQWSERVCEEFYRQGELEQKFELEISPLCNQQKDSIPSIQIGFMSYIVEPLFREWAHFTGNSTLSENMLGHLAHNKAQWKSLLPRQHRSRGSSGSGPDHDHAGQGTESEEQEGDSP

cGMP-dependent 3',5'-cyclic phosphodiesterase (Homo sapiens), sequence (O00408 whole entry): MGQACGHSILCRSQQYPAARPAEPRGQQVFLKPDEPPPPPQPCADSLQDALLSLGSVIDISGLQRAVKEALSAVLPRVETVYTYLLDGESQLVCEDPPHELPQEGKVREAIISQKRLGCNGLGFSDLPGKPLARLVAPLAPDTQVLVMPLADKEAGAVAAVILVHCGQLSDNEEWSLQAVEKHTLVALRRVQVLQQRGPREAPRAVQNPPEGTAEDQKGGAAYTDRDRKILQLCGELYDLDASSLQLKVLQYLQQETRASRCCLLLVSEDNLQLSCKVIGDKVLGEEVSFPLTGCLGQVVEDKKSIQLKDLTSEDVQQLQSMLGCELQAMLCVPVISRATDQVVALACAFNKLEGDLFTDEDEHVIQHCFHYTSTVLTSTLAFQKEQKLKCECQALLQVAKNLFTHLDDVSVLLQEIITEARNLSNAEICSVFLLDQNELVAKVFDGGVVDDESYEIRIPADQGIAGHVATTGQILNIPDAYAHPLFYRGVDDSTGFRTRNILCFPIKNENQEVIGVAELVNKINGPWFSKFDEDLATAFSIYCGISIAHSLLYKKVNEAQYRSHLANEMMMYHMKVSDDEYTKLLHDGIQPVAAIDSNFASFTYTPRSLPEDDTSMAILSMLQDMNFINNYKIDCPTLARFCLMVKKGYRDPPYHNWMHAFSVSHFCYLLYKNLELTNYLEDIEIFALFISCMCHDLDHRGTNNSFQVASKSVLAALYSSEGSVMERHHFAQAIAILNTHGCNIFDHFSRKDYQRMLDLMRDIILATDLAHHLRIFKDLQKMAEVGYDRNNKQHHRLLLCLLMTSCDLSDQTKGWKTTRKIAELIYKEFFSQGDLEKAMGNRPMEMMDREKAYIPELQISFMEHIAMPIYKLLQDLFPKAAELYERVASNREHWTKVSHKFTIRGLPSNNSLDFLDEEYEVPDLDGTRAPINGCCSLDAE

| SMILES | IC50 [2] | Ratio [3] | IC50 [10] | other results |
| --- | --- | --- | --- | --- |
| COc1ccc(C(=O)Nc2c(Cl)cncc2Cl)c2ccc(C(F)(F)F)nc12 | – | 0.66 | 77 nM | AUC ([8]; in vivo): 1174 ng·h/mL; AUC ([8]; plasma, read-out: AUC): 1170 ng·h/mL; AUC [9]: 6860 ng·h/mL; Cmax [11]: 380 ng/mL |
| COc1ccc(C(=O)Nc2ccncc2Cl)c2ccc(C(F)(F)F)nc12 | 1120 nM | 10 | 110 nM | – |
| COc1ccc(C(=O)Nc2cc[n+]([O-])cc2Cl)c2ccc(C(F)(F)F)nc12 | 240 nM | 0.65 | 370 nM | – |
| COc1ccc(C(=O)Nc2c(F)cncc2F)c2ccc(C(F)(F)F)nc12 | 35 nM | 0.94 | 38 nM | – |

Continued, in another order:

| IC50 [2] | Ratio [3] | IC50 [10] | SMILES | other results |
| --- | --- | --- | --- | --- |
| 60 nM | 0.4 | 150 nM | COc1ccc(C(=O)Nc2c(Cl)c[n+]([O-])cc2Cl)c2ccc(C(F)(F)F)nc12 [SCH-351591] | IC50 [1]: 60 nM; inhibition [4]: 15%; inhibition [5]: 5%; inhibition [6]: 31%; Cmax [7]: 3060 ng/mL; AUC ([8]; in vivo): 15757 ng·h/mL; AUC ([8]; plasma, read-out: AUC): 15800 ng·h/mL; AUC [9]: 50500 ng·h/mL; Cmax [11]: 1390 ng/mL; inhibition [12]: 0%; inhibition [13]: 10% |
| 120 nM | 2.1 | 58 nM | COc1ccc(C(=O)Nc2c(C)cncc2C)c2ccc(C(F)(F)F)nc12 | – |
| 150 nM | 0.39 | 380 nM | COc1ccc(C(=O)Nc2c(C)c[n+]([O-])cc2C)c2ccc(C(F)(F)F)nc12 | – |
| 70 nM | 1.17 | 60 nM | COc1ccc(C(=O)Nc2c(F)c[n+]([O-])cc2F)c2ccc(C(F)(F)F)nc12 | – |
